Test results: ChEMBL document CHEMBL5576150, “Synthesis and Biological Evaluation of Pyrazole-Pyrimidones as a New Class of Correctors of the Cystic Fibrosis Transmembrane Conductance Regulator (CFTR)” (J Med Chem, 2024)
Active and inactive are the calls of the source. No cut-off for these calls is given here.

Assays:
[1] = test system: Cystic fibrosis transmembrane conductance regulator (Homo sapiens), P13569 [F508del]; assay: Corrector activity at 3xHA-tagged full-length human CFTR F508del mutant expressed in human CFBE41o- cells assessed as restoration of plasma membrane density of channel incubated for 24 hrs in presence of VX-661 by ELISA; assay type: cell membranes; conditions: filed as activator
[2] = test system: Cystic fibrosis transmembrane conductance regulator (Homo sapiens), P13569 [S13F]; assay: Corrector activity at 3xHA-tagged full-length human CFTR S13F mutant expressed in human CFBE41o- cells assessed as restoration of plasma membrane density of channel in presence of N-(5-(4-fluorobenzyl)thiazol-2-yl)-2,5-dimethylfuran-3-carboxamide incubated for 24 hrs by ELISA; assay type: cell membranes; conditions: filed as activator
[3] = test system: Cystic fibrosis transmembrane conductance regulator (Homo sapiens), P13569 [S492F]; assay: Corrector activity at 3xHA-tagged full-length human CFTR S492F mutant expressed in human CFBE41o- cells assessed as restoration of plasma membrane density of channel at 10 uM incubated for 24 hrs in presence of VX-661/VX-445 by ELISA; assay type: cell membranes; conditions: filed as activator
[4] = test system: Cystic fibrosis transmembrane conductance regulator (Homo sapiens), P13569 [F508del]; assay: Inhibition of activity of 3xHA-tagged full-length human CFTR F508del mutant expressed in human CFBE41o- cells in presence of VX-809/N-(5-(4-fluorobenzyl)thiazol-2-yl)-2,5-dimethylfuran-3-carboxamide; assay type: cell-based
[5] = test system: Cystic fibrosis transmembrane conductance regulator (Homo sapiens), P13569 [R560T]; assay: Corrector activity at 3xHA-tagged full-length human CFTR R560T mutant expressed in human CFBE41o- cells assessed as restoration of plasma membrane density of channel in presence of VX-809/N-(5-(4-fluorobenzyl)thiazol-2-yl)-2,5-dimethylfuran-3-carboxamide by ELISA; assay type: cell membranes
[6] = test system: Cystic fibrosis transmembrane conductance regulator (Homo sapiens), P13569 [F508del]; assay: (§1) Corrector activity at 3xHA-tagged full-length human CFTR F508del mutant expressed in human CFBE41o- cells assessed as rescue of forskolin/VX-770-induced transepithelial short-circuit current measured after 24 hrs in presence of VX-809/N-(5-(4-fluorobenzyl)thiazol-2-yl)-2,5-dimethylfuran-3-carboxamide by electrophysiological method relative to wild-type CFTR activity; assay type: cell-based; conditions: filed as activator
[7] = test system: Cystic fibrosis transmembrane conductance regulator (Homo sapiens), P13569 [S492F]; assay: Corrector activity at 3xHA-tagged full-length human CFTR S492F mutant expressed in human CFBE41o- cells assessed as restoration of plasma membrane density of channel in presence of VX-661 incubated for 24 hrs by ELISA; assay type: cell membranes; conditions: filed as activator
[8] = test system: Cystic fibrosis transmembrane conductance regulator (Homo sapiens), P13569 [S492F]; assay: Corrector activity at 3xHA-tagged full-length human CFTR S492F mutant expressed in human CFBE41o- cells assessed as restoration of plasma membrane density of channel in presence of VX-809 incubated for 24 hrs by ELISA; assay type: cell membranes; conditions: filed as activator
[9] = test system: Cystic fibrosis transmembrane conductance regulator (Homo sapiens), P13569 [S13F]; assay: Corrector activity at 3xHA-tagged full-length human CFTR S13F mutant expressed in human CFBE41o- cells assessed as restoration of plasma membrane density of channel at 10 uM incubated for 24 hrs in presence of VX-445 by ELISA; assay type: cell membranes
[10] = test system: Cystic fibrosis transmembrane conductance regulator (Homo sapiens), P13569 [S13F]; assay: Corrector activity at 3xHA-tagged full-length human CFTR S13F mutant expressed in human CFBE41o- cells assessed as restoration of plasma membrane density of channel incubated for 24 hrs in presence of VX-445 by ELISA; assay type: cell membranes
[11] = test system: Cystic fibrosis transmembrane conductance regulator (Homo sapiens), P13569 [S492F]; assay: Corrector activity at 3xHA-tagged full-length human CFTR S492F mutant expressed in human CFBE41o- cells assessed as restoration of plasma membrane density of channel incubated for 24 hrs in presence of VX-445 by ELISA; assay type: cell membranes
[12] = test system: Cystic fibrosis transmembrane conductance regulator (Homo sapiens), P13569 [M1101K]; assay: Corrector activity at 3xHA-tagged full-length human CFTR M1101K mutant expressed in human CFBE41o- cells assessed as restoration of plasma membrane density of channel in presence of VX-809/N-(5-(4-fluorobenzyl)thiazol-2-yl)-2,5-dimethylfuran-3-carboxamide by ELISA relative to wild-type CFTR level; assay type: cell membranes; conditions: filed as activator
[13] = test system: Cystic fibrosis transmembrane conductance regulator (Homo sapiens), P13569 [N1303K]; assay: Corrector activity at 3xHA-tagged full-length human CFTR N1303K mutant expressed in human CFBE41o- cells assessed as restoration of plasma membrane density of channel in presence of VX-809/N-(5-(4-fluorobenzyl)thiazol-2-yl)-2,5-dimethylfuran-3-carboxamide by ELISA relative to wild-type CFTR level; assay type: cell membranes; conditions: filed as activator
[14] = test system: Cystic fibrosis transmembrane conductance regulator (Homo sapiens), P13569 [F508del]; assay: Corrector activity at CFTR F508del mutant in patient-derived human HBE cells assessed as forskolin/VX-770-induced transepithelial short-circuit current in presence of VX-809/N-(5-(4-fluorobenzyl)thiazol-2-yl)-2,5-dimethylfuran-3-carboxamide by electrophysiological method (reference value: 16 %); assay type: cell-based; conditions: filed as activator
[15] = test system: Cystic fibrosis transmembrane conductance regulator (Homo sapiens), P13569 [F508del]; assay: (§2) Corrector activity at 3xHA-tagged full-length human CFTR F508del mutant expressed in human CFBE41o- cells assessed as restoration of plasma membrane density of channel at 10 uM incubated for 24 hrs in presence of VX-661/VX-445 by ELISA; assay type: cell membranes; conditions: filed as activator
[16] = test system: Cystic fibrosis transmembrane conductance regulator (Homo sapiens), P13569 [F508del]; assay: Corrector activity at 3xHA-tagged full-length human CFTR F508del mutant expressed in human CFBE41o- cells assessed as restoration of plasma membrane density of channel in presence of N-(5-(4-fluorobenzyl)thiazol-2-yl)-2,5-dimethylfuran-3-carboxamide incubated for 24 hrs by ELISA; assay type: cell membranes; conditions: filed as activator
[17] = test system: Cystic fibrosis transmembrane conductance regulator (Homo sapiens), P13569 [F508del]; assay: (§3) Corrector activity at 3xHA-tagged full-length human CFTR F508del mutant expressed in human CFBE41o- cells assessed as restoration of plasma membrane density of channel incubated for 24 hrs in presence of VX-809/N-(5-(4-fluorobenzyl)thiazol-2-yl)-2,5-dimethylfuran-3-carboxamide by ELISA; assay type: cell membranes; conditions: filed as activator, dose 10.0 µM
[18] = target: Cystic fibrosis transmembrane conductance regulator (Homo sapiens, UniProt P13569, F508DEL); assay: as §3; assay type: cell membranes
[19] = test system: Cystic fibrosis transmembrane conductance regulator (Homo sapiens), P13569 [S13F]; assay: Corrector activity at 3xHA-tagged full-length human CFTR S13F mutant expressed in human CFBE41o- cells assessed as restoration of plasma membrane density of channel in presence of VX-661 incubated for 24 hrs by ELISA; assay type: cell membranes; conditions: filed as activator
[20] = test system: Cystic fibrosis transmembrane conductance regulator (Homo sapiens), P13569 [F508del]; assay: Corrector activity at 3xHA-tagged full-length human CFTR F508del mutant expressed in human CFBE41o- cells assessed as functional rescue of channel by measuring anion transport measured after 24 hrs in presence of VX-809/N-(5-(4-fluorobenzyl)thiazol-2-yl)-2,5-dimethylfuran-3-carboxamide by halide-sensitive YFP quenching assay relative to combination of VX-809/N-(5-(4-fluorobenzyl)thiazol-2-yl)-2,5-dimethylfuran-3-carboxamide; assay type: cell-based; conditions: filed as activator
[21] = test system: Cystic fibrosis transmembrane conductance regulator (Homo sapiens), P13569 [S13F]; assay: Corrector activity at 3xHA-tagged full-length human CFTR S13F mutant expressed in human CFBE41o- cells assessed as restoration of plasma membrane density of channel in presence of VX-809/N-(5-(4-fluorobenzyl)thiazol-2-yl)-2,5-dimethylfuran-3-carboxamide by ELISA; assay type: cell membranes; conditions: filed as activator
[22] = test system: Cystic fibrosis transmembrane conductance regulator (Homo sapiens), P13569 [S492F]; assay: Corrector activity at 3xHA-tagged full-length human CFTR S492F mutant expressed in human CFBE41o- cells assessed as restoration of plasma membrane density of channel in presence of VX-809/N-(5-(4-fluorobenzyl)thiazol-2-yl)-2,5-dimethylfuran-3-carboxamide by ELISA; assay type: cell membranes; conditions: filed as activator
[23] = test system: Cystic fibrosis transmembrane conductance regulator (Homo sapiens), P13569 [F508del]; assay: Corrector activity at 3xHA-tagged full-length human CFTR F508del mutant expressed in human CFBE41o- cells assessed as restoration of plasma membrane density of channel incubated for 24 hrs in presence of VX-809 by ELISA; assay type: cell membranes; conditions: filed as activator
[24] = test system: Cystic fibrosis transmembrane conductance regulator (Homo sapiens), P13569 [S492F]; assay: Corrector activity at 3xHA-tagged full-length human CFTR S492F mutant expressed in human CFBE41o- cells assessed as restoration of plasma membrane density of channel in presence of N-(5-(4-fluorobenzyl)thiazol-2-yl)-2,5-dimethylfuran-3-carboxamide incubated for 24 hrs by ELISA; assay type: cell membranes; conditions: filed as activator
[25] = test system: Cystic fibrosis transmembrane conductance regulator (Homo sapiens), P13569 [S492F]; assay: as §1, with “S492F” for “F508del”, “current at 10 uM” for “current”, “method” for “method relative to wild-type CFTR activity”; assay type: cell-based; conditions: filed as activator
[26] = test system: Cystic fibrosis transmembrane conductance regulator (Homo sapiens), P13569 [F508del]; assay: Corrector activity at 3xHA-tagged full-length human CFTR F508del mutant expressed in human CFBE41o- cells assessed as restoration of plasma membrane density of channel incubated for 24 hrs in presence of VX-445 by ELISA; assay type: cell membranes
[27] = test system: Cystic fibrosis transmembrane conductance regulator (Homo sapiens), P13569 [S13F]; assay: Corrector activity at 3xHA-tagged full-length human CFTR S13F mutant expressed in human CFBE41o- cells assessed as restoration of plasma membrane density of channel in presence of VX-809 incubated for 24 hrs by ELISA; assay type: cell membranes; conditions: filed as activator
[28] = test system: Cystic fibrosis transmembrane conductance regulator (Homo sapiens), P13569 [F508del]; assay: as §2, with “VX-809/N-(5-(4-fluorobenzyl)thiazol-2-yl)-2,5-dimethylfuran-3-carboxamide” for “VX-661/VX-445”, “ELISA relative to wild-type CFTR level” for “ELISA”; assay type: cell membranes; conditions: filed as activator
[29] = test system: Cystic fibrosis transmembrane conductance regulator (Homo sapiens), P13569 [F508del]; assay: Corrector activity at 3xHA-tagged full-length human CFTR F508del mutant expressed in human CFBE41o- cells assessed as fractional plasma membrane density at 10 uM in presence of VX-809/N-(5-(4-fluorobenzyl)thiazol-2-yl)-2,5-dimethylfuran-3-carboxamide relative to forskoli-stimulated wild-type CFTR expressed in human CFBE41o- cells; assay type: cell membranes; conditions: filed as activator
[30] = test system: Cystic fibrosis transmembrane conductance regulator (Homo sapiens), P13569 [F508del]; assay: as §1, with “[…]” for “rescue of”, “at 10 uM” for “measured after 24 hrs”, “control” for “wild-type CFTR activity”; assay type: cell-based; set-up: scale not given: the % may be the effect or the level left; conditions: filed as activator
[31] = test system: Cystic fibrosis transmembrane conductance regulator (Homo sapiens), P13569 [F508del]; assay: (§4) Corrector activity at 3xHA-tagged full-length human CFTR F508del mutant expressed in human CFBE41o- cells assessed as restoration of plasma membrane density of channel at 10 uM incubated for 24 hrs in presence of VX-809/1-(4-chlorophenyl)-N-(1-(4-methyl-6-oxo-1,6-dihydropyrimidin-2-yl)-3-(thiophen-2-yl)-1H-pyrazol-5-yl)cyclopentane-1-carboxamide by immunoblot analysis relative to wild-type CFTR level; assay type: cell membranes; conditions: filed as activator
[32] = test system: Cystic fibrosis transmembrane conductance regulator (Homo sapiens), P13569 [F508del]; assay: Corrector activity at 3xHA-tagged full-length human CFTR F508del mutant expressed in human CFBE41o- cells assessed as restoration of channel function in presence of VX-809/1-(4-chlorophenyl)-N-(1-(4-methyl-6-oxo-1,6-dihydropyrimidin-2-yl)-3-(thiophen-2-yl)-1H-pyrazol-5-yl)cyclopentane-1-carboxamide relative to wild-type CFTR activity; assay type: cell-based; conditions: filed as activator
[33] = test system: Cystic fibrosis transmembrane conductance regulator (Homo sapiens), P13569 [F508del]; assay: as §4, with “ELISA” for “immunoblot analysis”; assay type: cell membranes; conditions: filed as activator
[34] = test system: Cystic fibrosis transmembrane conductance regulator (Homo sapiens), P13569 [F508del]; assay: as §4, with “densitometry” for “immunoblot analysis”; assay type: cell membranes; conditions: filed as activator

Sequence of Cystic fibrosis transmembrane conductance regulator (Homo sapiens), P13569 [F508del] (P13569 as listed by the source): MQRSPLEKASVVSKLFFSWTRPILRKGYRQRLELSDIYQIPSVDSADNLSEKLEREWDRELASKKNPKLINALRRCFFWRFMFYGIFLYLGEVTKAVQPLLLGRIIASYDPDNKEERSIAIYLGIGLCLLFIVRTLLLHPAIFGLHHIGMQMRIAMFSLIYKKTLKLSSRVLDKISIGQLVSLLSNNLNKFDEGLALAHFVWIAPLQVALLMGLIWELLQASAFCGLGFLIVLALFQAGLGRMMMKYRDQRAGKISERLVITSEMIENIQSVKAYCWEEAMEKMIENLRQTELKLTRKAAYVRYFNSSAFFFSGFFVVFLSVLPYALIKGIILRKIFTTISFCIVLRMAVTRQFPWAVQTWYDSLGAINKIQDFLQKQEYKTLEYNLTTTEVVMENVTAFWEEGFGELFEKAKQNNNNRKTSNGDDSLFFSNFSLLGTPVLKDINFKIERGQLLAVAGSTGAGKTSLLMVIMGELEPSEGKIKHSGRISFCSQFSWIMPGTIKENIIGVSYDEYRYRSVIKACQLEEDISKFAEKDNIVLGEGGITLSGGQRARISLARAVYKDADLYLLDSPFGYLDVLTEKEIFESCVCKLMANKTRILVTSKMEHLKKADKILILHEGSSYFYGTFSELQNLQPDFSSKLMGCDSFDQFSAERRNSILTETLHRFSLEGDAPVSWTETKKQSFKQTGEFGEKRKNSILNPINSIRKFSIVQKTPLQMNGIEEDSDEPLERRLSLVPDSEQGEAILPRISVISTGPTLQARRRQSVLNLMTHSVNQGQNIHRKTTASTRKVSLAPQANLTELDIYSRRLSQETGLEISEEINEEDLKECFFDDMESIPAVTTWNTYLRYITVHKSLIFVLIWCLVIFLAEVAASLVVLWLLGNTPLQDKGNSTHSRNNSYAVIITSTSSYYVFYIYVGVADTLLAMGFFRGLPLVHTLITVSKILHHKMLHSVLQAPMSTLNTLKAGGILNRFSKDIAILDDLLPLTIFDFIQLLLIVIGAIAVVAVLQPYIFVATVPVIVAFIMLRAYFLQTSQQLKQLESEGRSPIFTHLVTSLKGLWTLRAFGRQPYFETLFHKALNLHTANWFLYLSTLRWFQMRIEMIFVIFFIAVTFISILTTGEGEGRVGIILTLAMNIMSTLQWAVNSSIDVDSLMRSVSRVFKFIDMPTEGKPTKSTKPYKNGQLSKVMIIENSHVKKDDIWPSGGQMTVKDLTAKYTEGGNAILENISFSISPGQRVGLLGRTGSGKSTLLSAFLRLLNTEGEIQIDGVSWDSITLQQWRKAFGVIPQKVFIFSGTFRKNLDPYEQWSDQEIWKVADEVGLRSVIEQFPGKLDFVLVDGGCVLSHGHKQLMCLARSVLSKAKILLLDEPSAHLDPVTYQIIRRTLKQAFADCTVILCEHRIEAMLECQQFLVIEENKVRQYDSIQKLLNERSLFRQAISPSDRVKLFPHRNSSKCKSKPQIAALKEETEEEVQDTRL
Sequence of Cystic fibrosis transmembrane conductance regulator (Homo sapiens), P13569 [S492F] (P13569 whole entry S492F): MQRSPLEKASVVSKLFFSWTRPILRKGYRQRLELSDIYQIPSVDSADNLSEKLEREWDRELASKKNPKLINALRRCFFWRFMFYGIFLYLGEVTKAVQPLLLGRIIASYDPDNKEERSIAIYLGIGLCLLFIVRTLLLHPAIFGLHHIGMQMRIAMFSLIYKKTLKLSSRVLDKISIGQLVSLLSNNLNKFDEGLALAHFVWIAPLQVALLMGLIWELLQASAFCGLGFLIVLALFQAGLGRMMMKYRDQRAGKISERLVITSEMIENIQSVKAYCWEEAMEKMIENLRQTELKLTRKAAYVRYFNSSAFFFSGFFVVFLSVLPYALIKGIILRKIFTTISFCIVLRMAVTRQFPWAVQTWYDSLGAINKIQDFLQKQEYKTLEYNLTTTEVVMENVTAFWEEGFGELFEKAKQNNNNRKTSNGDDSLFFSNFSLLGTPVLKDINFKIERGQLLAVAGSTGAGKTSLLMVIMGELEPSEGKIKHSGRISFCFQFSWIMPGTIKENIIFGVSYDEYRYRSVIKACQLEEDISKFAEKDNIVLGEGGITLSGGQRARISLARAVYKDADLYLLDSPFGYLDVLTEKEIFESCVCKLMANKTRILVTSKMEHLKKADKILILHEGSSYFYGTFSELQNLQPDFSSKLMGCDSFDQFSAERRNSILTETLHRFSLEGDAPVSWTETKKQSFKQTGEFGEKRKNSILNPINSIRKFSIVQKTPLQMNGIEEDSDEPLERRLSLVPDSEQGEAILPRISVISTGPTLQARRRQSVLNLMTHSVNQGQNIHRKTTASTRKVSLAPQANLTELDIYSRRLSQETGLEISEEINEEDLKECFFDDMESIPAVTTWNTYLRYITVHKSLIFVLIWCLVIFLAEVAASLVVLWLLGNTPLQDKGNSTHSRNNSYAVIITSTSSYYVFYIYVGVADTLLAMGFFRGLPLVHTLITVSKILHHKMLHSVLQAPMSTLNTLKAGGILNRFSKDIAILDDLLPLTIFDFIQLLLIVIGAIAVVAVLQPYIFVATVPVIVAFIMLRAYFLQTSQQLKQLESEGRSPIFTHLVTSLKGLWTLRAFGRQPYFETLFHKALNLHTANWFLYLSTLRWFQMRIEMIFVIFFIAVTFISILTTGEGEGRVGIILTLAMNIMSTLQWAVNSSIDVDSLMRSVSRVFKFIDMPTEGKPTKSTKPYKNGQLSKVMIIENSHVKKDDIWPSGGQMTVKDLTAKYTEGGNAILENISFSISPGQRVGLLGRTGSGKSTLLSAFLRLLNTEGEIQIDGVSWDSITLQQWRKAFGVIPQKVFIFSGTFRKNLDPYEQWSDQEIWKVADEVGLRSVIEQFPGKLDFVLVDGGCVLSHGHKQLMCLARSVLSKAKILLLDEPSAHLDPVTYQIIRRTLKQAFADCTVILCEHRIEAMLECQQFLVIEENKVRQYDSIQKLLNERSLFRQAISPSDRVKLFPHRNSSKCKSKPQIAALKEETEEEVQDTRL
Sequence of Cystic fibrosis transmembrane conductance regulator (Homo sapiens), P13569 [S13F] (P13569 whole entry S13F): as the sequence (P13569 whole entry S492F) above, with S13F, F492S counted along it
Sequence of Cystic fibrosis transmembrane conductance regulator (P13569 as listed by the source): as the sequence (P13569 as listed by the source) above
Sequence of Cystic fibrosis transmembrane conductance regulator (Homo sapiens), P13569 [N1303K] (P13569 whole entry N1303K): as the sequence (P13569 whole entry S492F) above, with F492S, N1303K counted along it
Sequence of Cystic fibrosis transmembrane conductance regulator (Homo sapiens), P13569 [R560T] (P13569 whole entry R560T): as the sequence (P13569 whole entry S492F) above, with F492S, R560T counted along it
Sequence of Cystic fibrosis transmembrane conductance regulator (Homo sapiens), P13569 [M1101K] (P13569 whole entry M1101K): as the sequence (P13569 whole entry S492F) above, with F492S, M1101K counted along it

Activity [1] | Activity [2] | Activity [5] | Activity [7] | Activity [8] | Activity [9] | Activity [10] | Activity [11] | Activity [12] [%] | Activity [13] [%] | Activity [16] | Activity [17] | EC50 [18] [µM] | Activity [19] | Activity [20] [%] | Activity [21] | Activity [22] | Activity [23] | Activity [24] | Activity [26] | Compound | also measured
Active | Active | inactive | Active | Active | inactive | inactive | inactive | 15 | 15 | Active | Dose-Dependent Effect | 6.16 | Active | 250 | Active | Active | Active | Active | inactive | CC(C)(Oc1ccc(Cl)cc1)C(=O)Nc1cc(-c2cccs2)nn1-c1nc2c(c(=O)[nH]1)CCCC2 | Activity [3]: Active; inhibition [4]: inactive; Activity [6]: 80%; Activity [14]: 50%; Activity [15]: Active; Activity [25]: Active; Activity [27]: Active
Active | Active | inactive | Active | Active | inactive | inactive | inactive | 15 | 15 | Active | Dose-Dependent Effect | 1.79 | Active | 250 | Active | Active | Active | Active | inactive | Cc1nc(-n2nc(-c3cccs3)cc2NC(=O)C2(c3ccc(Cl)cc3)CCCC2)[nH]c(=O)c1C | Activity [28]: 95%; Activity [29]: 68%; Activity [30]: -25%; Activity [27]: Active
 |  |  |  |  |  |  |  |  |  |  |  |  |  |  |  |  |  |  |  | Cc1cc(C(=O)Nc2ncc(Cc3ccc(F)cc3)s2)c(C)o1 | Activity [31]: 100%; Activity [32]: 50%; Activity [33]: 100%; Activity [34]: 100%
